Reference: US20240025922A1, “TETRAHYDROPYRIDO[3,4-d]PYRIMIDINES AS HPK1 INHIBITORS” (Merck Patent GmbH, priority 2022, published 2024)
Where two headings read alike, the source gives them in different places.

Tests used:
[1] = molecular target: full-length human HPK1 (MAP4K1) (Homo sapiens (Human), UniProt Q92918); assay: HPK1 Kinase Assay (Biochemical Assay), ADP-Glo; conditions: GST-HPK1 3.2 nM, 10 μM ATP, MBP substrate, read-out: HPK1 enzymatic IC50
How it was run: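 ADP-Glo luminescence after a 120-min kinase reaction gave percent inhibition and IC50. The enzyme was Sf21-expressed N-terminal GST full-length human HPK1 at 3.2 nM in HEPES pH 7.5 buffer with MgCl2, DTT, Brij-35 and BSA.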

[2] = molecular target: HPK1 (SLP76 phosphorylation at Ser376 in Jurkat and EL-4 cells) (Homo sapiens, UniProt Q92918); type: cell-based
HPK1 (SLP76 phosphorylation at Ser376 in Jurkat and EL-4 cells), sequence (Q92918 whole entry, looked up): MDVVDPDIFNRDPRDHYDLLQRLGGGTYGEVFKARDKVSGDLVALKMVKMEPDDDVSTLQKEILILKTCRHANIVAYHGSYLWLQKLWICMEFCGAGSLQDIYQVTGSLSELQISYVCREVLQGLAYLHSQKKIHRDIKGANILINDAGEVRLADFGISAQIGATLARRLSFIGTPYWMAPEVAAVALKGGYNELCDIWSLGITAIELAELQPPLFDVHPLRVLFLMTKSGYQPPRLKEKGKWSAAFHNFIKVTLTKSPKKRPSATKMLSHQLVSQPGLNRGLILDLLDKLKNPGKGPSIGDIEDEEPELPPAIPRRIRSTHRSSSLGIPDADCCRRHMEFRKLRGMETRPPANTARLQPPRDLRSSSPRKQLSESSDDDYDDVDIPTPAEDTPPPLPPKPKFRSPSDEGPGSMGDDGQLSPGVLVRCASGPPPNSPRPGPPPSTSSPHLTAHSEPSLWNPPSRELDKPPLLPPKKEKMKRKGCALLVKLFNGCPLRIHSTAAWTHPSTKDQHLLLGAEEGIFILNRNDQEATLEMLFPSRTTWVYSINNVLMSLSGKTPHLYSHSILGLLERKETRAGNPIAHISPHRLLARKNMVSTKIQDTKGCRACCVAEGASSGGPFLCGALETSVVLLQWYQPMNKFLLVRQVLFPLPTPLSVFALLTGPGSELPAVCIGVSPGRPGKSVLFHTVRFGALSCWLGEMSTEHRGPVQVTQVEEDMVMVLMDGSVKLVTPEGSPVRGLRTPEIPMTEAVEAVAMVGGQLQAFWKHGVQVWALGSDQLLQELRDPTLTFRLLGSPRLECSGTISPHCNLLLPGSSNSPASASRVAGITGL
Description: Cellular Assay—Phospho-SLP-76 (Ser376).
Inhibition of HPK1 enzymatic activity in cells was determined by detection of SLP76 phosphorylation at Ser376 residue in lysate from Jurkat (human) and EL-4 (mouse) cells. Jurkat and EL-4 cells express both HPK1 and SLP76 naturally. All cells were cultured in RPMI 1640 media containing 10% heat inactivated fetal bovine serum (FBS) and 1×Penicillin-Streptomycin. In either Jurkat or El-4 assay, cells were pre-incubated with test compounds prior to T cell stimulation by respective αCD3/αCD28 Dynabeads™. For detection, plates were read on the Envision and percent inhibition and IC50 were determined by Smart fit in Genedata Analyzer.
For Jurkat cells: 35 μL cell suspension were dispensed at a density of 30,000 cells/well in 384-well plates containing HBSS (Gibco, 14025076)+0.1% BSA). 10-point logarithmic serial dilution of test compounds in DMSO were prepared by a Hamilton automated liquid handling robot and 35 nL was transferred into each well by an Echo liquid handler. After 60 min. pre-incubation, the cells were stimulated by adding 5 μL human T activator αCD3/αCD28 Dynabeads™ (Gibco, 11132D) at 1.2×107 beads/mL for 15 minutes at 37° C. Detection of Ser376 phosphorylation status was accomplished by first adding 10 μL of 5×AlphaLISA lysis buffer (Perkin Elmer, ALSU-PSLP-A500) to each well of the cell plate using a Multidrop Combi (5840300), followed by 20 minutes shaking. 10 μL cell lysate from each treatment were then transferred to a white 384-well plate (Corning 3572) and incubated with AlphaLISA acceptor beads for one hour (AlphaLISA SureFire Ultra p-SLP76(Ser376), Perkin Elmer, ALSU-PSLP-A500), and donor beads for additional 2 hours at room temperature in the dark.
For EL-4.IL2 assay, 50 μL cell suspension at 2×10^6 cells/mL in HBSS were first dispensed into 384-well plates and then 50 nL serial dilutions of test compounds were spotted to each well by an Echo liquid handler. After 60 min. incubation at 37° C., cells were stimulated by adding 5 μL mouse T cell activator αCD3/αCD28 Dynabeads™ (ThermFisher Scientific, 11452D) for 30 minutes at 37° C. After a brief spin and subsequent supernatant discarded, 12.5 μL of Cisbio lysis buffer were added to each well and plates were shaken for 30 min at 450 RPM. For detection, 4 μL prepared HTRF antibody mixture (Cisbio, 63ADK000U) in detection buffer were mixed with 16 μl of cell lysate and plates were incubated at room temperature for 19 hours prior to EnVision reading.

[3] = αCD3/αCD28 Dynabeads stimulated cells, pSLP76 (Ser376) detection; read-out: HPK1 pSLP76 IC50
[4] = read-out: HPK1 pSLP76 IC50; αCD3/αCD28 Dynabeads stimulated cells, pSLP76 (Ser376) detection

full-length human HPK1 (MAP4K1), sequence (Q92918 whole entry): as the sequence (Q92918 whole entry, looked up) above

Row | Compound | IC50 [1] [nM] | IC50 [2, 3] [nM] | IC50 [2, 4] [nM]
1 | CN1CCc2cc(Nc3cc4c(cn3)CCN(c3cnc5c(c3Cl)NCCO5)C4)nn2CC1=O [Example 37, 2-[(6-{8-chloro-1H,2H,3H-pyrido[2,3-b][1,4]oxazin-7-yl}-5,6,7,8-tetrahydro-2,6-naphthyridin-3-yl)amino]-6-methyl-4H,5H,6H,7H,8H-pyrazolo[1,5-d][1,4]diazepin-7-one] | < 100 | 500 to 1000 | 
2 | Cc1c(N2CCc3cnc(Nc4ccc(CS(=O)(=O)CC5(C)COC5)cc4)nc3C2)cnc2c1NCCO2 [Example 41, 7-{8-methyl-1H,2H,3H-pyrido[2,3-b][1,4]oxazin-7-yl}-N-(4-{[(3-methyloxetan-3-yl)methanesulfonyl]methyl}phenyl)-5H,6H,7H,8H-pyrido[3,4-d]pyrimidin-2-amine] | < 100 | < 500 | 
3 | COCCNC(=O)c1ccc(Nc2ncc3c(n2)CN(c2cnc4c(c2C)NCCO4)CC3)cc1 [Example 44, N-(2-methoxyethyl)-4-[(7-{8-methyl-1H,2H,3H-pyrido[2,3-b][1,4]oxazin-7-yl}-5H,6H,7H,8H-pyrido[3,4-d]pyrimidin-2-yl)amino]benzamide] | < 100 | < 500 | 
4 | Cc1cc(Nc2ncc3c(n2)CN(c2cnc4c(c2C)NCCO4)CC3)ccc1NC(=O)CN(C)C [Example 45, 2-(dimethylamino)-N-{2-methyl-4-[(7-{8-methyl-1H,2H,3H-pyrido[2,3-b][1,4]oxazin-7-yl}-5H,6H,7H,8H-pyrido[3,4-d]pyrimidin-2-yl)amino]phenyl}acetamide] | < 100 | < 500 | 
5 | Cc1cc(Nc2ncc3c(n2)CN(c2cnc4c(c2C)NCCO4)CC3)ccc1NC(=O)CN1CCOCC1 [Example 48, N-{2-methyl-4-[(7-{8-methyl-1H,2H,3H-pyrido[2,3-b][1,4]oxazin-7-yl}-5H,6H,7H,8H-pyrido[3,4-d]pyrimidin-2-yl)amino]phenyl}-2-(morpholin-4-yl)acetamide] | < 100 | < 500 | 
6 | Cc1c(N2CCc3cnc(Nc4ccnc(CS(C)(=O)=O)c4)nc3C2)cnc2c1NCCO2 [Example 49, 7-(8-methyl-2,3-dihydro-1H-pyrido[2,3-b][1,4]oxazin-7-yl)-N-(2-((methylsulfonyl)methyl)pyridin-4-yl)-5,6,7,8-tetrahydropyrido[3,4-d]pyrimidin-2-amine] | < 100 | 500 to 1000 | 
7 | Cc1c(N2CCc3cnc(Nc4ccc(C5(O)CCN(C)CC5)cc4)cc3C2)cnc2c1NCCO2 [Example 52, 1-methyl-4-(4-((6-(8-methyl-2,3-dihydro-1H-pyrido[2,3-b][1,4]oxazin-7-yl)-5,6,7,8-tetrahydro-2,6-naphthyridin-3-yl)amino)phenyl)piperidin-4-ol] | < 100 | 500 to 1000 | 
8 | Cc1c(N2CCc3cnc(Nc4ccc(N5CCN(C)CC5)cc4)nc3C2)cnc2c1NCCO2 [Example 55, 7-(8-methyl-2,3-dihydro-1H-pyrido[2,3-b][1,4]oxazin-7-yl)-N-(4-(4-methylpiperazin-1-yl)phenyl)-5,6,7,8-tetrahydropyrido[3,4-d]pyrimidin-2-amine] | < 100 |  | 500 to 1000
9 | Cc1c(N2CCc3cnc(Nc4ccc(NC(=O)CN(C)C)nc4)nc3C2)cnc2c1NCCO2 [Example 56, 2-(dimethylamino)-N-(5-((7-(8-methyl-2,3-dihydro-1H-pyrido[2,3-b][1,4]oxazin-7-yl)-5,6,7,8-tetrahydropyrido[3,4-d]pyrimidin-2-yl)amino)pyridin-2-yl)acetamide] | < 100 |  | < 500
10 | Cc1c(N2CCc3cnc(Nc4ccc(CS(C)(=O)=O)cc4)cc3C2)cnc2c1NCCO2 [Example 57, N-[4-(methanesulfonylmethyl)phenyl]-6-{8-methyl-1H,2H,3H-pyrido[2,3-b][1,4]oxazin-7-yl}-5,6,7,8-tetrahydro-2,6-naphthyridin-3-amine] | < 100 | < 500 | 

Continued, in another order:

Row | IC50 [1] [nM] | IC50 [2, 3] [nM] | Compound | IC50 [2, 4] [nM]
11 | < 100 | 500 to 1000 | Cc1cc(Nc2ncc3c(n2)CN(c2cnc4c(c2C)NCCO4)CC3)cnc1NCCN1CCOCC1 [Example 36, 3-methyl-N5-(7-{8-methyl-1H,2H,3H-pyrido[2,3-b][1,4]oxazin-7-yl}-5H,6H,7H,8H-pyrido[3,4-d]pyrimidin-2-yl)-N2-[2-(morpholin-4-yl)ethyl]pyridine-2,5-diamine] | 
12 | < 100 | > 1000 | Cc1cc(Nc2ncc3c(n2)CN(c2cnc4c(c2C)NCCO4)CC3)ccc1C(=O)N1CC(N(C)C)C1 [Example 38, N,N-dimethyl-1-{2-methyl-4-[(7-{8-methyl-1H,2H,3H-pyrido[2,3-b][1,4]oxazin-7-yl}-5H,6H,7H,8H-pyrido[3,4-d]pyrimidin-2yl)amino]benzoyl}azetidin-3-amin] | 
13 | < 100 | < 500 | Cc1cc(Nc2ncc3c(n2)CN(c2cnc4c(c2C)NCCO4)CC3)ccc1C(=O)NCCN1CCOCC1 [Example 39, 2-methyl-4-[(7-{8-methyl-1H,2H,3H-pyrido[2,3-b]oxazin-7-yl}-5H,6H,7H,8H-pyrido[3,4-d]pyrimidin-2-yl)amino]-N-[2-(morpholin-4-yl)ethyl] benzamide] | 
14 | < 100 | < 500 | Cc1c(N2CCc3cnc(Nc4ccc(CS(=O)(=O)C5CC5)nc4)nc3C2)cnc2c1NCCO2 [Example 40, 6-[(cyclopropanesulfonyl)methyl]-N-(7-{8-methyl-1H,2H,3H-pyrido[2,3-b][1,4]oxazin-7-yl}-5H,6H,7H,8H-pyrido[3,4-d]pyrimidin-2-yl) pyridin-3-amine] | 
15 | < 100 | < 500 | Cc1c(N2CCc3cnc(Nc4ccc(C(=O)N5CC[C@@H](N(C)C)C5)cc4)nc3C2)cnc2c1NCCO2 [Example 42, (3R)—N,N-dimethyl-1-{4-[(7-{8-methyl-1H,2H,3H-pyrido[2,3-b][1,4]oxazin-7-yl} 5H,6H,7H,8H-pyrido[3,4-d]pyrimidin-2-yl)amino]benzoyl}pyrrolidin-3-amine] | 
16 | < 100 | 500 to 1000 | CNCc1cccc(Nc2ncc3c(n2)CN(c2cnc4c(c2C)NCCO4)CC3)c1 [Example 46, 7-{8-methyl-1H,2H,3H-pyrido[2,3-b][1,4]oxazin-7-yl}-N-{3-[(methylamino)methyl]phenyl}-5H,6H,7H,8H-pyrido[3,4-d]pyrimidin-2-amine] | 
17 | < 100 | 500 to 1000 | Cc1c(N2CCc3cnc(Nc4ccc5c(c4)CN(C)C5)cc3C2)cnc2c1NCCO2 [Example 47, 6-{8-methyl-1H,2H,3H-pyrido[2,3-b][1,4]oxazin-7-yl}-N-(2-methyl-2,3-dihydro-1H-isoindol-5-yl)-5,6,7,8-tetrahydro-2,6-naphthyridin-3-amine] | 
18 | < 100 | < 500 | Cc1c(N2CCc3cnc(Nc4cccc(CS(C)(=O)=O)c4)nc3C2)cnc2c1NCCO2 [Example 50, 7-(8-methyl-2,3-dihydro-1H-pyrido[2,3-b][1,4]oxazin-7-yl)-N-(3-((methylsulfonyl)methyl)phenyl)-5,6,7,8-tetrahydropyrido[3,4-d]pyrimidin-2-amine] | 
19 | < 100 | 500 to 1000 | Cc1c(N2CCc3cnc(Nc4ccc(CS(C)(=O)=O)nc4)cc3C2)cnc2c1NCCO2 [Example 51, 6-(8-methyl-2,3-dihydro-1H-pyrido[2,3-b][1,4]oxazin-7-yl)-N-(6-((methylsulfonyl)methyl)pyridin-3-yl)-5,6,7,8-tetrahydro-2,6-naphthyridin-3-amine] | 
20 | < 100 | 500 to 1000 | CNCc1ccc(Nc2ncc3c(n2)CN(c2cnc4c(c2C)NCCO4)CC3)cc1 [Example 53, 7-(8-methyl-2,3-dihydro-1H-pyrido[2,3-b][1,4]oxazin-7-yl)-N-(4-((methylamino)methyl)phenyl)-5,6,7,8-tetrahydropyrido[3,4-d]pyrimidin-2-amine] | 
